Assay results published in patent EP0095813A2, “Penetrating topical pharmaceutical compositions containing 9-(2-hydroxyethoxymethyl) guanine” (THE PROCTER & GAMBLE COMPANY, priority 1982, dated 1983).

How the values were obtained:
[1] = Skin penetration study, Franz diffusion apparatus, transport across human epidermis in vitro; type: in vitro ADME; details: binary system with a cell-envelope disordering compound versus standard vehicle/solvent; heat-separated abdominal epidermis, about 31°C
Excerpt: The following data illustrate the effects of incorporating 9-(2-hydroxyethoxymethyl) guanine into a standard vehicle/sol- vent versus the same pharmaceutical active used in a binary system with a cell-envelope disordering compound.
The above data reflect relative transport of 9-(2-hydroxyethoxymethyl) guanine across human epidermis in vitro.
In the above skin penetration studies, human skin, (heat- separated abdominal epidermis, taken at autopsy), was placed in a standard Franz diffusion apparatus (Crown Glass Co., Somerville, N.J.) in a horizontal position between a lower, capped diffusion cell and an upper, open cell. A normal saline solution was added to the lower diffusion cell, abutting the subcutaneous side of the skin, and the test composition comprising a solution of active drug in the carrier at indicated formulation was added to the diffusion cell abutting the epidermal side of the skin.
This cell assembly was kept in a constant-temperature room at about 31°C. At appropriate intervals, each diffusion cell assembly was opened and the diffusate from the cell abutting the subcutaneous side of the skin was withdrawn. Drug active in the diffusate was measured using standard analytical techniques. Each trial was run on a separate sample of human skin.

[2] = cited from earlier work

In the case of `Nc1nc2c(ncn2COCCO)c(=O)[nH]1` [9-(2-hydroxyethoxymethyl) guanine], the “Penetration (relative transport across human epidermis in vitro)” value [1] is given as “significantly enhanced”, the “solubility in lipophilic solvent systems” value ([2]; lipophilic solvent systems) is given as “almost totally insoluble” and the solubility in water ([2]; water) is given as “slightly soluble”.
